From the kinase profiling compilation of Christmann-Franck et al. (2016)
Several values for one entry are separate records, joined by “and”; a condition that tells them apart may be missing. Equal entries are not always repeated.

What was measured:
Test in all cases: radiometric filter-binding kinase assay, Kinase HotSpot
Conditions in all cases: compound 0.5 µM; ATP 10 µM
ACVR1B (human) = ACVR1B (human) (UniProt P36896)
AURKB (human) = AURKB (human) (UniProt Q96GD4)
CAMK1D (human) = CAMK1D (human) (UniProt Q8IU85)
CAMK2G (human) = CAMK2G (human) (UniProt Q13555)
CDK2 CCNA2 (human) = CDK2 CCNA2 (human) (UniProt P24941+P20248)
CLK2 (human) = CLK2 (human) (UniProt P49760)
CLK4 (human) = CLK4 (human) (UniProt Q9HAZ1)
CSNK1G2 (human) = CSNK1G2 (human) (UniProt P78368)
DAPK2 (human) = DAPK2 (human) (UniProt Q9UIK4)
DMPK (human) = DMPK (human) (UniProt Q09013)
EPHA6 (human) = EPHA6 (human) (UniProt Q9UF33)
ERBB4 (human) = ERBB4 (human) (UniProt Q15303)
FER (human) = FER (human) (UniProt P16591)
FGFR2 (human) = FGFR2 (human) (UniProt P21802)
FGFR3 (human) = FGFR3 (human) (UniProt P22607)
GSG2 (human) = GSG2 (human) (UniProt Q8TF76)
JAK3 JH1 JH2 (human) = JAK3 JH1 JH2 (human) (UniProt P52333)
MAP3K14 (human) = MAP3K14 (human) (UniProt Q99558)
MAP3K2 (human) = MAP3K2 (human) (UniProt Q9Y2U5)
MAPK11 (human) = MAPK11 (human) (UniProt Q15759)
MARK3 (human) = MARK3 (human) (UniProt P27448)
MELK (human) = MELK (human) (UniProt Q14680)
MYO3B (human) = MYO3B (human) (UniProt Q8WXR4)
NEK9 (human) = NEK9 (human) (UniProt Q8TD19)
OXSR1 (human) = OXSR1 (human) (UniProt O95747)
PAK2 (human) = PAK2 (human) (UniProt Q13177)
PDGFRA (human) = PDGFRA (human) (UniProt P16234)
PLK2 (human) = PLK2 (human) (UniProt Q9NYY3)
PLK3 (human) = PLK3 (human) (UniProt Q9H4B4)
PRKACG (human) = PRKACG (human) (UniProt P22612)
PRKCB2 (human) = PRKCB2 (human) (UniProt P05771)
PRKCH (human) = PRKCH (human) (UniProt P24723)
PRKG1 (human) = PRKG1 (human) (UniProt Q13976)
RIPK2 (human) = RIPK2 (human) (UniProt O43353)
RPS6KA3 KD1 KD2 (human) = RPS6KA3 KD1 KD2 (human) (UniProt P51812)
STK38 (human) = STK38 (human) (UniProt Q15208)
SYK (human) = SYK (human) (UniProt P43405)
TLK2 (human) = TLK2 (human) (UniProt Q86UE8)
ULK3 (human) = ULK3 (human) (UniProt Q6PHR2)
VRK1 (human) = VRK1 (human) (UniProt Q99986)
BRAF (human) = BRAF (human) (UniProt P15056)

Sequence of GSG2 (human) (Q8TF76 whole entry, looked up): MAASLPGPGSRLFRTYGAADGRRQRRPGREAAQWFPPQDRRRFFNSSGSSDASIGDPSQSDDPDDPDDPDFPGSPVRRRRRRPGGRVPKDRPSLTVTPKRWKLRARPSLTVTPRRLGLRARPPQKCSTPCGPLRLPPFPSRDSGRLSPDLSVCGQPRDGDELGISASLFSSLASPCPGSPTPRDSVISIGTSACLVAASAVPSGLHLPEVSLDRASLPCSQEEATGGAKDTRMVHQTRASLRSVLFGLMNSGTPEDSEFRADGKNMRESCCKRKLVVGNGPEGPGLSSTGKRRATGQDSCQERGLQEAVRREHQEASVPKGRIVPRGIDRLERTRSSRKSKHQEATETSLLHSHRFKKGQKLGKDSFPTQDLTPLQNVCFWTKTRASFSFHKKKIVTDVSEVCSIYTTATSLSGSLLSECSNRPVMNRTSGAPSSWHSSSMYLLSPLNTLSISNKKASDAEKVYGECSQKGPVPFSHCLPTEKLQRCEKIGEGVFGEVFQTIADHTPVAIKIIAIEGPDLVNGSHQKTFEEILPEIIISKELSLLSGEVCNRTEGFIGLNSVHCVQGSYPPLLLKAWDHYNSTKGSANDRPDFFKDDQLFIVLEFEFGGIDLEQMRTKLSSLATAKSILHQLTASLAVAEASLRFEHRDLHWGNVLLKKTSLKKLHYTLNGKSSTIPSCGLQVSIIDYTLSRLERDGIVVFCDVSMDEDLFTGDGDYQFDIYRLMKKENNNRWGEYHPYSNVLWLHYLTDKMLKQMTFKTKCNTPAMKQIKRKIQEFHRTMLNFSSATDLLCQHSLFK
Sequence of DAPK2 (human) (Q9UIK4 whole entry, looked up): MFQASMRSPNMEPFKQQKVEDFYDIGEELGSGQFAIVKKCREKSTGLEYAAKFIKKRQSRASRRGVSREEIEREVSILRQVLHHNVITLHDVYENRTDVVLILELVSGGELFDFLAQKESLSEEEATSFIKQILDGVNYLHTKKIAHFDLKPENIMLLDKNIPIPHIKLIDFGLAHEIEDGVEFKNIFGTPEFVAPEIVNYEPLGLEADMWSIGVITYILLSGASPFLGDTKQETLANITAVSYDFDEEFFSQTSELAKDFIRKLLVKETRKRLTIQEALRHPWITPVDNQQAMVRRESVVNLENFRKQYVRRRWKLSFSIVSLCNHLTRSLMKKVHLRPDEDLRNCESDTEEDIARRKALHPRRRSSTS
Sequence of RIPK2 (human) (O43353 whole entry, looked up): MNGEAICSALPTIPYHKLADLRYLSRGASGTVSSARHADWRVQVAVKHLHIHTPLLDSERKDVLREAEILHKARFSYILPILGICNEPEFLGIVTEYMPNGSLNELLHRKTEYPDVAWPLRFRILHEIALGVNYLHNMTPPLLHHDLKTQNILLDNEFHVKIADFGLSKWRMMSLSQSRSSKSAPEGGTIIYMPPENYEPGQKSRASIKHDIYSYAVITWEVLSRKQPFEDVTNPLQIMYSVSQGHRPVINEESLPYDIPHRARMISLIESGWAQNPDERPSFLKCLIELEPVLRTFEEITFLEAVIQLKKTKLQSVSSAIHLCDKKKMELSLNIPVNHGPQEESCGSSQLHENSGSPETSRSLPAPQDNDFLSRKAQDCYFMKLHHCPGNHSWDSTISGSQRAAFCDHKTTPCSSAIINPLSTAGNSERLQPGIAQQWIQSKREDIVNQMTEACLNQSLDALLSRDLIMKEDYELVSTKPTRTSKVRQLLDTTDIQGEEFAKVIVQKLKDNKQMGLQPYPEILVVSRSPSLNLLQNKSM
Sequence of OXSR1 (human) (O95747 whole entry, looked up): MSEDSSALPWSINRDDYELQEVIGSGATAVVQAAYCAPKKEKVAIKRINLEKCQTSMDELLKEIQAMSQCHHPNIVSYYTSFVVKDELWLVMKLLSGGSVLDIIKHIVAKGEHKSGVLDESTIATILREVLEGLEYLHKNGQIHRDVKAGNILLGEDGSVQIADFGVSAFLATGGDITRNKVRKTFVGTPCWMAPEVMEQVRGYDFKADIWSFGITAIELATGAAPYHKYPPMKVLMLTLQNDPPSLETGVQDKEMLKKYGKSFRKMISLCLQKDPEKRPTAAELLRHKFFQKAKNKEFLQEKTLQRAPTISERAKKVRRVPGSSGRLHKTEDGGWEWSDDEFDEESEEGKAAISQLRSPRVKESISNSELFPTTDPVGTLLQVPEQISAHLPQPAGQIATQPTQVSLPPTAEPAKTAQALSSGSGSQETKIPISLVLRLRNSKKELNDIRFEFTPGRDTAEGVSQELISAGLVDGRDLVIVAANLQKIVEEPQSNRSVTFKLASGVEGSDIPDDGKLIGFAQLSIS
Sequence of PDGFRA (human) (P16234 whole entry, looked up): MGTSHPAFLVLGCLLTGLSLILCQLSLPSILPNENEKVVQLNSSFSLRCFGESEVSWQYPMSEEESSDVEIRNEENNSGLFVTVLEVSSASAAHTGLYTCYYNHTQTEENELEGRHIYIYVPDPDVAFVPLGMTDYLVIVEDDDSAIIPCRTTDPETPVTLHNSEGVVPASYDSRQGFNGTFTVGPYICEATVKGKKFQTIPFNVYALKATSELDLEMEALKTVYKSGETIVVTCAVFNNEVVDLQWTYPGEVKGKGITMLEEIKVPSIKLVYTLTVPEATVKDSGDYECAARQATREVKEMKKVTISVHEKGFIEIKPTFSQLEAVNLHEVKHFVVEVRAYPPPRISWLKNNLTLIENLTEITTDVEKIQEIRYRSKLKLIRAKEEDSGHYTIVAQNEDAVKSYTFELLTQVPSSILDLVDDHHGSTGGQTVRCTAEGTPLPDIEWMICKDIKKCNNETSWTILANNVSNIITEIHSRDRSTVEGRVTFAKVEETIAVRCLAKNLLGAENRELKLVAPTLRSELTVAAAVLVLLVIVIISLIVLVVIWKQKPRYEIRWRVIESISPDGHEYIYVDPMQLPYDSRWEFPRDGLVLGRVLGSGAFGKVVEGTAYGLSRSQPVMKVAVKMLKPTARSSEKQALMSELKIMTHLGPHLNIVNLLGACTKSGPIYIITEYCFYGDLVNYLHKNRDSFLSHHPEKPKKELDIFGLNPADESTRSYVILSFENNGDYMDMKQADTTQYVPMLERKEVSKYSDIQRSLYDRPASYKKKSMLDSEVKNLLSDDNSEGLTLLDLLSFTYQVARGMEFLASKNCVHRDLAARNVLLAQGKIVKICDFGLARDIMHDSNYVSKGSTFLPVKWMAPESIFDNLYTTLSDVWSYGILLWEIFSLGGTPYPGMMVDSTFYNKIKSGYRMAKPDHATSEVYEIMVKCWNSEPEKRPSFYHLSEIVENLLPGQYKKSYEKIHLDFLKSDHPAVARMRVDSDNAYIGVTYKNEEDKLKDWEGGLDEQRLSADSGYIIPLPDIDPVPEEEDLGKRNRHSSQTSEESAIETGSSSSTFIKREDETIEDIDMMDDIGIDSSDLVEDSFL
Sequence of MAP3K2 (human) (Q9Y2U5 whole entry, looked up): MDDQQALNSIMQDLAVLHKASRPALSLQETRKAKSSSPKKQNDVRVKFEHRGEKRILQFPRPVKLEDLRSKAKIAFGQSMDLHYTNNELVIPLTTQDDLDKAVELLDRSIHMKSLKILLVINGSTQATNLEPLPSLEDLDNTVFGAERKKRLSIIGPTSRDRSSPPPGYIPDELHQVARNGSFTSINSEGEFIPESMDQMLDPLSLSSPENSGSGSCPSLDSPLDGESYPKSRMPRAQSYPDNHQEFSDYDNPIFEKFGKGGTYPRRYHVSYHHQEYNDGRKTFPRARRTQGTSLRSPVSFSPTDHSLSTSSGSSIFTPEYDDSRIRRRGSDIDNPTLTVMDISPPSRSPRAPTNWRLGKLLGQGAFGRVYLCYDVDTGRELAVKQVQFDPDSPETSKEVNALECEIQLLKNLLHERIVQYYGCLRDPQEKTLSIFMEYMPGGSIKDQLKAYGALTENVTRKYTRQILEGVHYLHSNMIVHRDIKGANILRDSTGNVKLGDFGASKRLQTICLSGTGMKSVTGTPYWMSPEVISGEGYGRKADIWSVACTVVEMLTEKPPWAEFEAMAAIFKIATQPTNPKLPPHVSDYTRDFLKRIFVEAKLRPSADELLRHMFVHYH
Sequence of MARK3 (human) (P27448 whole entry, looked up): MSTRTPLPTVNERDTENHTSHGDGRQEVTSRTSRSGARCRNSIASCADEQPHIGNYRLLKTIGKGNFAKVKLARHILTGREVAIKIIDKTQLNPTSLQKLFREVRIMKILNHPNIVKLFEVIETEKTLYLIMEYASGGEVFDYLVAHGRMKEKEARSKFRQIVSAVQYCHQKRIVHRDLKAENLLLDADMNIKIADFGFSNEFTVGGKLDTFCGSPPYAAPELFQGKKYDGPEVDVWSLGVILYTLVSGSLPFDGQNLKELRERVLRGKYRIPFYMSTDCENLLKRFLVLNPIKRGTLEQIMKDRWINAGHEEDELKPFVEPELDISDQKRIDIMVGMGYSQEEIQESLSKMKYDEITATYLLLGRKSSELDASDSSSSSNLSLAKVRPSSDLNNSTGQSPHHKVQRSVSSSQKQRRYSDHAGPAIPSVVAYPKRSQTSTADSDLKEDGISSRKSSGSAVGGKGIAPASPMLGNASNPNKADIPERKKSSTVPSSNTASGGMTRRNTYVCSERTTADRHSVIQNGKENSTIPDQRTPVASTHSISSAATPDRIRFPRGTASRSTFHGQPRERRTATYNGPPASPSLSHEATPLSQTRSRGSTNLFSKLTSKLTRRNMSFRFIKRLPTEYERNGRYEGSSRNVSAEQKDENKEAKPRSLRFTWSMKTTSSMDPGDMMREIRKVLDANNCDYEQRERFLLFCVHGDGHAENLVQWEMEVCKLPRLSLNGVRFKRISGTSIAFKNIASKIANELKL
Sequence of AURKB (human) (Q96GD4 whole entry, looked up): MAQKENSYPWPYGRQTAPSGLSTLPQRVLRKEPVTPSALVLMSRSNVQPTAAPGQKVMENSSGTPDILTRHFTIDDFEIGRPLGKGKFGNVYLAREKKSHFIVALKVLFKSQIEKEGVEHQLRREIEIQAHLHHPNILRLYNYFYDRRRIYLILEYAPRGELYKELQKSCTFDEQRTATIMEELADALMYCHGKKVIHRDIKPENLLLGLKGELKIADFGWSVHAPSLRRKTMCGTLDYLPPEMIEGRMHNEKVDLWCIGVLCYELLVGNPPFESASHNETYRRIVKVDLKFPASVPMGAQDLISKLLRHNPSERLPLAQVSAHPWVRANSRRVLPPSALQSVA

Compound | residual activity (ACVR1B (human)) | residual activity (AURKB (human)) | residual activity (CAMK1D (human)) | residual activity (CDK2 CCNA2 (human)) | residual activity (CLK2 (human)) | residual activity (CLK4 (human)) | residual activity (CSNK1G2 (human)) | residual activity (DAPK2 (human)) | residual activity (DMPK (human)) | residual activity (ERBB4 (human)) | residual activity (FER (human)) | residual activity (FGFR2 (human)) | residual activity (FGFR3 (human)) | residual activity (GSG2 (human)) | residual activity (JAK3 JH1 JH2 (human)) | residual activity (MAP3K14 (human)) | residual activity (MAP3K2 (human)) | residual activity (MAPK11 (human)) | residual activity (MARK3 (human)) | residual activity (NEK9 (human)) | further results
Oc1ccc(Nc2nc(-c3ccc(Cl)cc3)cs2)cc1 | 89.5% | 102% | 103% | 98.6% | 102% | 98.8% | 91.8% | 107% | 102% | 83.3% | 90.3% | 104% | 96.5% | 100% | 92.2% | 102% | 92.1% | 105% | 95.3% | 90.6% | residual activity (CAMK2G (human)): 90.6%; residual activity (EPHA6 (human)): 101%; residual activity (MELK (human)): 100%; residual activity (MYO3B (human)): 98.7%; residual activity (OXSR1 (human)): 88.8%; residual activity (PAK2 (human)): 87%; residual activity (PDGFRA (human)): 101%; residual activity (PLK2 (human)): 105%; residual activity (PLK3 (human)): 97.4%; residual activity (PRKACG (human)): 112%; residual activity (PRKCB2 (human)): 94.7%; residual activity (PRKCH (human)): 96.3%; residual activity (PRKG1 (human)): 94.1% and 98.5%; residual activity (RIPK2 (human)): 96.4%; residual activity (RPS6KA3 KD1 KD2 (human)): 107%; residual activity (STK38 (human)): 98.2%; residual activity (SYK (human)): 93.8%; residual activity (TLK2 (human)): 121%; residual activity (ULK3 (human)): 94.4%; residual activity (VRK1 (human)): 99.8%
COc1ccc(OC)c2c(=S)c3ccccc3[nH]c12 | 108% | 89.6% | 104% | 88.6% | 81.2% | 104% | 103% | 94% | 99.6% | 104% | 84% | 95.8% | 94.9% | 89.2% | 96.7% | 96% | 101% | 86.7% | 96.7% | 95.8% | residual activity (BRAF (human)): 88.5%; residual activity (CAMK2G (human)): 95.8%; residual activity (MELK (human)): 96.6%; residual activity (OXSR1 (human)): 90.6%; residual activity (PAK2 (human)): 104%; residual activity (PDGFRA (human)): 85.6%; residual activity (PLK2 (human)): 97.6%; residual activity (PLK3 (human)): 99.8%; residual activity (PRKCB2 (human)): 106%; residual activity (PRKCH (human)): 86.2%; residual activity (PRKG1 (human)): 101% and 94.4%; residual activity (RIPK2 (human)): 108%; residual activity (RPS6KA3 KD1 KD2 (human)): 109%; residual activity (SYK (human)): 100%; residual activity (VRK1 (human)): 100%
CN([C@@H](Cc1ccc(OS(=O)(=O)c2cccc3cnccc23)cc1)C(=O)N1CCN(c2ccccc2)CC1)S(=O)(=O)c1cccc2cnccc12 | 98.7% | 104% | 101% | 99.8% | 93% | 97.2% | 100% | 99.7% | 108% | 103% | 100% | 98.1% | 98.8% | 94.7% | 98% | 90.7% | 98.9% | 98.9% | 93.7% | 97.6% | residual activity (EPHA6 (human)): 94.9%; residual activity (MYO3B (human)): 88.5%; residual activity (OXSR1 (human)): 101%; residual activity (PAK2 (human)): 99.1%; residual activity (PDGFRA (human)): 99.6%; residual activity (PLK2 (human)): 102%; residual activity (PLK3 (human)): 99.3%; residual activity (PRKACG (human)): 107%; residual activity (PRKCH (human)): 89.8%; residual activity (PRKG1 (human)): 84.2% and 93.6%; residual activity (RIPK2 (human)): 89.4%; residual activity (RPS6KA3 KD1 KD2 (human)): 98.6%; residual activity (STK38 (human)): 97.2%; residual activity (SYK (human)): 98.7%; residual activity (TLK2 (human)): 100%; residual activity (ULK3 (human)): 98.6%; residual activity (VRK1 (human)): 92.1%
